Experimental data as given in the supplement of paper PMC10307832.

Legend:
Assay in all cases: relative viability (nuclei count vs DMSO), 5 days (fraction); higher = more cells survive
[1] = compound: CC1=C(C(=O)N2C=CSC2=N1)CCN3CCC(=C(C4=CC=CC=C4)C5=CC=C(C=C5)F)CC3
Outline: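 Lung cancer cell lines in 1536-well plates were exposed by pinning to five library-drug doses (not always all listed) √10 apart, following an overnight hold at 37 °C. MetaXpress counted Hoechst-stained nuclei from 4× images taken after 5 days without medium change. Viability is the median ratio of treated-well to vehicle-well nuclei across plates. Plates required control CV below 25% and at least one doubling.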

[2] = compound: CC1=C(C(=O)N2C=CSC2=N1)CCN3CCC(=C(C4=CC=CC=C4)C5=CC=C(C=C5)F)CC3 + CC1(C)CCC(c2ccc(Cl)cc2)=C(CN2CCN(c3ccc(C(=O)NS(=O)(=O)c4ccc(N[C@H](CCN5CCOCC5)CSc5ccccc5)c(S(=O)(=O)C(F)(F)F)c4)cc3)CC2)C1 [Navitoclax] (partner 0.5 µM)
Outline: (§1)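 One day after seeding in 1536-well plates, lung cancer cell lines were dosed by pin tool. Dosing was either single-drug or a fixed anchor-drug dose plus five library-drug doses (not always all listed) in √10 steps. After 5 days, nuclei were stained in one fix-and-stain step and counted on 4× images, and relative viability is the nuclei count of treated wells over that of vehicle wells, given as the median of duplicate plates.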

[3] = compound: CC1=C(C(=O)N2C=CSC2=N1)CCN3CCC(=C(C4=CC=CC=C4)C5=CC=C(C=C5)F)CC3 + COc1cc2c(Oc3ccc(NC(=O)C4(C(=O)Nc5ccc(F)cc5)CC4)cc3F)ccnc2cc1OCCCN1CCOCC1 [Foretinib] (partner 0.25 µM)
Outline: as §1

[4] = compound: CC1=C(C(=O)N2C=CSC2=N1)CCN3CCC(=C(C4=CC=CC=C4)C5=CC=C(C=C5)F)CC3 + CS(=O)(=O)CCNCc1ccc(-c2ccc3ncnc(Nc4ccc(OCc5cccc(F)c5)c(Cl)c4)c3c2)o1 [Lapatinib] (partner 2 µM)
Outline: as §1

[5] = compound: CC1=C(C(=O)N2C=CSC2=N1)CCN3CCC(=C(C4=CC=CC=C4)C5=CC=C(C=C5)F)CC3 + CS(=O)(=O)N1CCN(Cc2cc3nc(-c4cccc5[nH]ncc45)nc(N4CCOCC4)c3s2)CC1 [Pictilisib] (partner 1 µM)
Outline: as §1

[6] = compound: CC1=C(C(=O)N2C=CSC2=N1)CCN3CCC(=C(C4=CC=CC=C4)C5=CC=C(C=C5)F)CC3 + C[C@@H](Oc1cc(-c2cnn(C3CCNCC3)c2)cnc1N)c1c(Cl)ccc(F)c1Cl [Crizotinib] (partner 1 µM)
Outline: as §1

[7] = compound: CC1=C(C(=O)N2C=CSC2=N1)CCN3CCC(=C(C4=CC=CC=C4)C5=CC=C(C=C5)F)CC3 + C[C@]1(O)C[C@@H](c2nc(-c3ccc4ccc(-c5ccccc5)nc4c3)c3c(N)nccn32)C1 [Linsitinib] (partner 1 µM)
Outline: as §1

[8] = compound: CC1=C(C(=O)N2C=CSC2=N1)CCN3CCC(=C(C4=CC=CC=C4)C5=CC=C(C=C5)F)CC3 + Cc1nc(NC(=O)N2CCC[C@H]2C(N)=O)sc1-c1ccnc(C(C)(C)C(F)(F)F)c1 [Alpelisib] (partner 2 µM)
Outline: as §1

[9] = compound: CC1=C(C(=O)N2C=CSC2=N1)CCN3CCC(=C(C4=CC=CC=C4)C5=CC=C(C=C5)F)CC3 + N=C(N)NC(=N)NCCc1ccccc1 [Phenformin] (partner 250 µM)
Outline: as §1

[10] = compound: CC1=C(C(=O)N2C=CSC2=N1)CCN3CCC(=C(C4=CC=CC=C4)C5=CC=C(C=C5)F)CC3 + Nc1ncn([C@H]2C[C@H](O)[C@@H](CO)O2)c(=O)n1 [Decitabine] (partner 2 µM)
Outline: as §1

[11] = compound: CC1=C(C(=O)N2C=CSC2=N1)CCN3CCC(=C(C4=CC=CC=C4)C5=CC=C(C=C5)F)CC3 + O=C(c1cc(Cc2n[nH]c(=O)c3ccccc23)ccc1F)N1CCN(C(=O)C2CC2)CC1 [Olaparib] (partner 8 µM)
Outline: as §1

With A549 as the cell line, how does the relative viability ([1]; 0.08 µM) read?
Its relative viability is 0.841.

What about the relative viability ([1]; 0.253 µM) of the same cell line?
The relative viability was 1.05.

And the relative viability ([1]; 0.8 µM)?
The relative viability was 1.01.

What about the relative viability ([1]; 2.53 µM) of the same cell line?
Its relative viability is 1.06.

And the relative viability ([1]; 8 µM)?
Its relative viability is 0.433.

And the relative viability ([2]; first compound 0.08 µM)?
The relative viability was 1.32.

What about the relative viability ([2]; first compound 0.253 µM) of the same cell line?
Its relative viability is 1.19.

And the relative viability ([2]; first compound 0.8 µM)?
Its relative viability is 1.3.

And the relative viability ([2]; first compound 2.53 µM)?
The relative viability was 1.37.

And the relative viability ([2]; first compound 8 µM)?
The relative viability was 0.673.

What about the relative viability ([3]; first compound 0.08 µM) of the same cell line?
The relative viability was 0.954.

What about the relative viability ([3]; first compound 0.253 µM) of the same cell line?
Its relative viability is 0.982.

And the relative viability ([3]; first compound 0.8 µM)?
Its relative viability is 1.03.

What about the relative viability ([3]; first compound 2.53 µM) of the same cell line?
The relative viability was 0.97.

And the relative viability ([3]; first compound 8 µM)?
Its relative viability is 0.763.

And the relative viability ([4]; first compound 0.08 µM)?
Its relative viability is 1.06.

And the relative viability ([4]; first compound 0.253 µM)?
Its relative viability is 0.884.

What about the relative viability ([4]; first compound 0.8 µM) of the same cell line?
Its relative viability is 0.922.

And the relative viability ([4]; first compound 2.53 µM)?
Its relative viability is 1.23.

What about the relative viability ([4]; first compound 8 µM) of the same cell line?
Its relative viability is 0.797.

What about the relative viability ([5]; first compound 0.08 µM) of the same cell line?
Its relative viability is 0.643.

What about the relative viability ([5]; first compound 0.253 µM) of the same cell line?
The relative viability was 0.434.

And the relative viability ([5]; first compound 0.8 µM)?
The relative viability was 0.467.

What about the relative viability ([5]; first compound 2.53 µM) of the same cell line?
Its relative viability is 0.567.

And the relative viability ([5]; first compound 8 µM)?
Its relative viability is 0.422.

What about the relative viability ([6]; first compound 0.08 µM) of the same cell line?
Its relative viability is 0.855.

What about the relative viability ([6]; first compound 0.253 µM) of the same cell line?
Its relative viability is 0.777.

And the relative viability ([6]; first compound 0.8 µM)?
The relative viability was 0.665.

What about the relative viability ([6]; first compound 2.53 µM) of the same cell line?
The relative viability was 0.64.

What about the relative viability ([6]; first compound 8 µM) of the same cell line?
Its relative viability is 0.579.

And the relative viability ([7]; first compound 0.253 µM)?
Its relative viability is 0.61.

And the relative viability ([7]; first compound 0.8 µM)?
Its relative viability is 0.658.

What about the relative viability ([7]; first compound 2.53 µM) of the same cell line?
The relative viability was 0.432.

What about the relative viability ([7]; first compound 8 µM) of the same cell line?
Its relative viability is 0.309.

And the relative viability ([8]; first compound 0.08 µM)?
Its relative viability is 0.915.

What about the relative viability ([8]; first compound 0.253 µM) of the same cell line?
The relative viability was 0.923.

And the relative viability ([8]; first compound 0.8 µM)?
The relative viability was 0.747.

And the relative viability ([8]; first compound 2.53 µM)?
The relative viability was 0.871.

And the relative viability ([8]; first compound 8 µM)?
The relative viability was 0.275.

And the relative viability ([9]; first compound 0.08 µM)?
Its relative viability is 0.101.

What about the relative viability ([9]; first compound 0.253 µM) of the same cell line?
The relative viability was 0.203.

What about the relative viability ([9]; first compound 0.8 µM) of the same cell line?
The relative viability was 0.206.

What about the relative viability ([9]; first compound 2.53 µM) of the same cell line?
The relative viability was 0.112.

And the relative viability ([9]; first compound 8 µM)?
The relative viability was 0.151.

What about the relative viability ([10]; first compound 0.08 µM) of the same cell line?
The relative viability was 0.206.

And the relative viability ([10]; first compound 0.253 µM)?
Its relative viability is 0.249.

What about the relative viability ([10]; first compound 0.8 µM) of the same cell line?
The relative viability was 0.266.

What about the relative viability ([10]; first compound 2.53 µM) of the same cell line?
Its relative viability is 0.282.

What about the relative viability ([10]; first compound 8 µM) of the same cell line?
Its relative viability is 0.194.

And the relative viability ([11]; first compound 0.253 µM)?
The relative viability was 0.212.

And the relative viability ([11]; first compound 0.8 µM)?
The relative viability was 0.385.

And the relative viability ([11]; first compound 2.53 µM)?
The relative viability was 0.36.

And the relative viability ([11]; first compound 8 µM)?
The relative viability was 0.151.
